Measurements published in publication PMC9481563, “Structural insights into the pSer/pThr dependent regulation of the SHP2 tyrosine phosphatase in insulin and CD28 signaling” (Nature Communications, 2022).
Entries after “also recorded” stand apart in the source; their conditions may differ.

Columns and labels:
[1] = test system: SHP2; conditions: SHP2 substrate sites, cutoff > 0.5 for genuine substrates; ref [1] Barr AJ et al., Cell 136, 352-63 (2009); cited from earlier work
Source text: page 80: Supplementary tables Peptide name Sequence Activity (Arb. u.) CADH2-Y785 […] 0.7 ERBB2-Y1248 […]- 0.6 PGFRB-Y751 […] 1 LCK-Y394 […] 1.3 CSK-Y184 […] 1.5 GHR-Y487 […] 0.8 TIE2-Y816 […] 1.2 ERBB2-Y1139 […] 1.2 WASP-Y290 […] 0.6 PAXI-Y118 […] 0.8 Supplementary table 1. SHP2 substrate sites derived from a large-scale comparative study with quantitative results. A cutoff of > 0.5 was applied to separate genuine SHP2 substrates from spurious signals. ...

[2] = test system: tyrosine kinase domain of the human insulin receptor (InsR); experiment: Capillary electrophoresis phosphorylation assay, InsR kinase domain; type: biochemical; conditions: CE assay, effect of pSer vs non-phosphorylated peptide of the pair; 1 mM ATP, pH 7.5; n = 1
Description: Ni-NTA purified stocks were subjected to anion exchange chromatography using an Äkta explorer instrument (Amersham Pharmacia) and Resource Q columns (GE healthcare). Prior to anion exchange, all proteins were dialyzed overnight against a low salt buffer (10–50 mM NaCl, 20 mM TRIS [pH = 8.0], 10% glycerol and 1 mM 1,4-dithiothreitol [DTT]) using a Servapor MWCO 12,000–14,000 membrane. Proteins loaded onto the column were eluted using a salt gradient up to 1 M NaCl over 30 min. Purity of proteins was assessed by SDS-PAGE and final samples were typically found to have >95% purity (see Supplementary figs. 85, 86). The protein aliquots were snap-frozen in liquid nitrogen and stored in −80 °C. […]
Phosphorylation and dephosphorylation assays with peptides were performed using capillary electrophoresis on an Agilent Capillary Electrophoresis ^3DCE system (Agilent Technologies, Waldbronn, Germany) applying DB-WAX coated silica capillary having a 33.5 cm total and 25 cm effective length with 50 μm I.D. (Agilent Technologies, Santa Clara, CA, USA). On-line absorption at 200 nm was monitored by DAD UV-Vis detector. […] Kinetic curves in the article are always presented with exponential fits (that approximate the integrated Michaelis-Menten functions decently on the measured time intervals).

[3] = test system: wild-type SHP2 catalytic domain; experiment: Capillary electrophoresis dephosphorylation assay, SHP2 catalytic domain; type: biochemical, human; conditions: for % nominal product: WT-SHP2 catalytic domain
Description: Phosphorylation and dephosphorylation assays with peptides were performed using capillary electrophoresis on an Agilent Capillary Electrophoresis ^3DCE system (Agilent Technologies, Waldbronn, Germany) applying DB-WAX coated silica capillary having a 33.5 cm total and 25 cm effective length with 50 μm I.D. (Agilent Technologies, Santa Clara, CA, USA). On-line absorption at 200 nm was monitored by DAD UV-Vis detector. The capillary was thermostated at 25 °C. Before measurements the capillary was rinsed subsequently with distilled water for 15 min and between measurements with BGE (100 mM trimethylamine-phosphate buffer (pH 2.5)) for 3 min. Samples were injected by 5 × 103 Pa pressure for 6 s. Runs were performed in the positive-polarity mode with 20 kV. […] The reaction was initialized by addition of the phosphatase enzyme. Kinase reactions were realized with the following buffer: 20 mM potassium phosphate (monobasic), 15 mM sodium phosphate (dibasic), 100 mM NaCl, 5 mM MgCl2, 5% glycerol, 0,05% non-ionic detergent IGEPAL, pH 7.5; reaction was started with the addition of 1 mM of ATP. Sampling from reactions was done in real time, except when conditions required pre-concentration of samples (with PTP1B only). In the latter case, reactions were run in 15 ml Falcon tubes, using an NH4HCO3-based buffer (100 mM end concentration), with 5 nM enzyme. After heat inactivation (10 min at 75 °C), the latter samples were lyophilized until dry and reconstituted in 40 ul distilled H2O. Kinetic curves in the article are always presented with exponential fits (that approximate the integrated Michaelis-Menten functions decently on the measured time intervals).

[4] = test system: HEK293T cells co-transfected with IRS1-FLAG (wild-type or Ser/Ala mutant) and constitutive active SHP2; experiment: Cell-based IRS1 Y612 phosphorylation assay (western blot) after insulin; parameters: species or system human
Description: HEK293T cells (#CRL-3216 ATCC, Manassas, VA USA) were maintained in DMEM (#41966029 Gibco, Waltham MA USA) supplemented with 10% FBS (#10500064 Gibco), 1% penicillin-streptomycin (#P0781-100ML Sigma, St. Louis MI USA) and 0.1% Amphotericin B (#15290026 Gibco). Cells were plated into 24-well plates in 7.5 × 10^4/well concentration and co-transfected with wild-type or Ser/Ala mutant pcDNA3.1-IRS1-FLAG and constitutive active pcDNA3.1-SHP2 plasmids using Lipofectamine 3000 (#L3000008 Invitrogen) reagent following the manufacturer’s instruction. After overnight serum-starvation cells were treated with 1 µM insulin (I9278, Sigma) for 0–30 min and harvested in Western sample buffer. Samples were run in 4–20% gradient gel (#4561096 BioRad, Hercules, CA USA) and transferred to nitrocellulose membrane using Transblot-Turbo System (#1704271 BioRad). Membranes were incubated in 1:5000 M2 anti-FLAG (#1804-200UG Sigma) and 1:1000 anti-pY612-IRS1 (#44-816 G Invitrogen) overnight and labelled with 1:10000 IRDye anti- mouse 680 (#92668070 LICOR Biosciences, Lincoln, NE USA) and 1:10.000 IRDye anti- rabbit 800 […] (#92632211 LICOR Biosciences) secondary antibodies. Membranes were scanned using the Odyssey CLx Fluorescence Imaging System (LICOR Biosciences, v5.2.5.).

[5] = 19 min, average of 3 replicates
[6] = 35 min, average of 3 replicates

## ARLIEDNEYTAREGAKF [LCK-Y394, SHP2 substrate site peptide from a large-scale comparative study]
[1]
  Activity (Arb. u.): 1.3 Arb. u.

## DAETSKLIYDFIEDQGG [WASP-Y290, SHP2 substrate site peptide from a large-scale comparative study]
[1]
  Activity (Arb. u.): 0.6 Arb. u.

## GGGEEDQDYDLSQLQQP [CADH2-Y785, SHP2 substrate site peptide from a large-scale comparative study]
[1]
  Activity (Arb. u.): 0.7 Arb. u.

## GRKGSGDYMPM{pSer}PKS [0pIRS1, IRS1 Y632 peptide with pSer only, InsR kinase substrate]
[2]
  tyrosine phosphorylation by InsR kinase (in words): failed to indicate any major effect; also recorded: altered kinetics to a very limited degree

## HPPEPKSPGE{pTyr}VNIEFGS [p0Rev-IRS1, IRS1 Y896 peptide, phosphotyrosine-only, used for dephosphorylation assays]
[3]; [5]
  % nominal product: 2.9%
[3]; 19 min, replicate 01
  % nominal product: 4.9%
[3]; 19 min, replicate 02
  % nominal product: 4.1%
[3]; 19 min, replicate 03
  % nominal product: -0.2%
[3]; [6]
  % nominal product: 2.1%
[3]; 35 min, replicate 01
  % nominal product: 2.3%
[3]; 35 min, replicate 02
  % nominal product: 1.9%
[3]; 35 min, replicate 03
  % nominal product: 2.2%
[3]; 51 min, replicate 01
  % nominal product: 8.3%
[3]; 51 min, replicate 02
  % nominal product: 2.0%
[3]; 51 min, replicate 03
  % nominal product: 1.3%

## HPPEPK{pSer}PGEYVNIEFGS [0pRev-IRS1, IRS1 Y896 motif peptide with −4 pSer only]
[2]
  tyrosine phosphorylation by InsR kinase (in words): altered kinetics to a very limited degree; also recorded: no major differences

## HPPEPK{pSer}PGE{pTyr}VNIEFGS [ppRev-IRS1, IRS1 Y896 peptide with pSer in addition to pTyr, for dephosphorylation assays]
[3]; CE assay, substrate 50 μM, enzyme 25 nM, 50 mM TRIS, 150 mM NaCl, 1 mM EDTA, 2 mM DTT, IGEPAL 0.1%, pH 7.4
  tyrosine dephosphorylation rate (in words): superior reaction rates; also recorded: greatly enhanced
[3]; [5]
  % nominal product: 47.8%
[3]; 19 min, replicate 01
  % nominal product: 47.7%
[3]; 19 min, replicate 02
  % nominal product: 59.3%
[3]; 19 min, replicate 03
  % nominal product: 36.5%
[3]; [6]
  % nominal product: 52.8%
[3]; 35 min, replicate 01
  % nominal product: 58.7%
[3]; 35 min, replicate 02
  % nominal product: 60.4%
[3]; 35 min, replicate 03
  % nominal product: 39.2%
[3]; 51 min, average of 3 replicates
  % nominal product: 55.2%
[3]; 51 min, replicate 01
  % nominal product: 60.3%
[3]; 51 min, replicate 02
  % nominal product: 61.2%
[3]; 51 min, replicate 03
  % nominal product: 44.1%

## KNNPDPTIYPVLDWNDI [TIE2-Y816, SHP2 substrate site peptide from a large-scale comparative study]
[1]
  Activity (Arb. u.): 1.2 Arb. u.

## LTCSPQPEYVNQPDVRP [ERBB2-Y1139, SHP2 substrate site peptide from a large-scale comparative study]
[1]
  Activity (Arb. u.): 1.2 Arb. u.

## MSKDESVDYVPMLDMKG [PGFRB-Y751, SHP2 substrate site peptide from a large-scale comparative study]
[1]
  Activity (Arb. u.): 1 Arb. u.

## RVGEEEHVYSFPNKQKS [PAXI-Y118, SHP2 substrate site peptide from a large-scale comparative study]
[1]
  Activity (Arb. u.): 0.8 Arb. u.

## SSLSNIDFYAQVSDITP [GHR-Y487, SHP2 substrate site peptide from a large-scale comparative study]
[1]
  Activity (Arb. u.): 0.8 Arb. u.

## TPTAENPEYLGLDVPV- [ERBB2-Y1248, SHP2 substrate site peptide from a large-scale comparative study]
[1]
  Activity (Arb. u.): 0.6 Arb. u.

## TVAAQDEFYRSGWALNM [CSK-Y184, SHP2 substrate site peptide from a large-scale comparative study]
[1]
  Activity (Arb. u.): 1.5 Arb. u.

## wt
[4]; Supp Fig 13, baseline analysis, median of 12
  pY612-IRS1/FLAG ratio, Median value: 0.0394
[4]; Supp Fig 13, time course analysis, 0 min, median of 10
  pY612-IRS1/FLAG ratio, Median value: 0.0379
[4]; Supp Fig 13, time course analysis, 15 min, median of 10
  pY612-IRS1/FLAG ratio, Median value: 0.4550
[4]; Supp Fig 14, baseline analysis, median of 3
  pY612-IRS1/FLAG ratio, Median value: 0.0140
